Measurements published in PMC6273209, “Evaluation of the Enantiomer Specific Biokinetics and Radiation Doses of [^18F]Fluspidine—A New Tracer in Clinical Translation for Imaging of σ1 Receptors” (Molecules, 2016).

Assay: Human dosimetry estimation from ex vivo biodistribution (organ harvesting method)
Assay type: in vivo, CD-1 mice
Conditions: for OD Adrenals / OD Brain / OD Breasts / OD Gallbladder Wall / OD Heart Wall / OD Kidneys / OD LLI Wall / OD Liver / OD Lungs / OD Muscle / OD Osteogenic Cells / OD Ovaries / OD Pancreas / OD Red Marrow / OD Skin / OD Small Intestine / OD Spleen / OD Stomach Wall / OD Testes / OD Thymus / OD Thyroid / OD Total Body / OD ULI Wall / OD Urinary Bladder Wall / OD Uterus / ED Contr. Adrenals / ED Contr. Brain / ED Contr. Breasts / ED Contr. Gallbladder Wall / ED Contr. Heart Wall / ED Contr. Kidneys / ED Contr. LLI Wall / ED Contr. Liver / ED Contr. Lungs / ED Contr. Muscle / ED Contr. Osteogenic Cells / ED Contr. Ovaries / ED Contr. Pancreas / ED Contr. Red Marrow / ED Contr. Skin / ED Contr. Small Intestine / ED Contr. Spleen / ED Contr. Stomach Wall / ED Contr. Thymus / ED Contr. Thyroid / ED Contr. ULI Wall / ED Contr. Urinary Bladder Wall / ED Contr. Uterus: mouse organ harvesting; for OD Adrenals / OD Brain / OD Breasts / OD Gallbladder Wall / OD Heart Wall / OD Kidneys / OD LLI Wall / OD Liver / OD Lungs / OD Muscle / OD Osteogenic Cells / OD Ovaries / OD Pancreas / OD Red Marrow / OD Skin / OD Small Intestine / OD Spleen / OD Stomach Wall / OD Testes / OD Thymus / OD Thyroid / OD Total Body / OD ULI Wall / OD Urinary Bladder Wall / OD Uterus: scaled to human adult male model; for ED Contr. Adrenals / ED Contr. Brain / ED Contr. Breasts / ED Contr. Gallbladder Wall / ED Contr. Heart Wall / ED Contr. Kidneys / ED Contr. LLI Wall / ED Contr. Liver / ED Contr. Lungs / ED Contr. Muscle / ED Contr. Osteogenic Cells / ED Contr. Ovaries / ED Contr. Pancreas / ED Contr. Red Marrow / ED Contr. Skin / ED Contr. Small Intestine / ED Contr. Spleen / ED Contr. Stomach Wall / ED Contr. Thymus / ED Contr. Thyroid / ED Contr. ULI Wall / ED Contr. Urinary Bladder Wall / ED Contr. Uterus / ED ICRP 60 / ED: scaled to human; for ED Contr. Adrenals / ED Contr. Brain / ED Contr. Breasts / ED Contr. Gallbladder Wall / ED Contr. Heart Wall / ED Contr. Kidneys / ED Contr. LLI Wall / ED Contr. Liver / ED Contr. Lungs / ED Contr. Muscle / ED Contr. Osteogenic Cells / ED Contr. Ovaries / ED Contr. Pancreas / ED Contr. Red Marrow / ED Contr. Skin / ED Contr. Small Intestine / ED Contr. Spleen / ED Contr. Stomach Wall / ED Contr. Thymus / ED Contr. Thyroid / ED Contr. ULI Wall / ED Contr. Urinary Bladder Wall / ED Contr. Uterus / ED: ICRP 103 weighting; for ED ICRP 60 / ED: mouse, harvesting; for ED ICRP 60: ICRP 60 weighting
Method: Female CD-1 mice (age: 12 weeks) received an intravenous injection of (R)-(+)-[^18F]fluspidine (0.35 ± 0.08 MBq; weight: 29.8 ± 2.2 g; n = 28) or (S)-(−)-[^18F]fluspidine (0.39 ± 0.05 MBq; weight: 29.3 ± 1.9 g; n = 22). Two to three animals per time point were sacrificed by cervical dislocation at 5, 15, 30, 45, 60, 90, 120, 180, and 240 min. p.i. The brain, heart, lung, stomach, small intestine (SI), large intestine (LI), liver, kidneys, urinary bladder (UB), spleen, thymus, pancreas, adrenals, and ovaries were dissected, weighed, and the accumulated activity quantified in a gamma-counter (WIZARD Automatic Gamma Counter, PerkinElmer, Waltham, MA, USA) to determine the percentage injected activity (dose) per gram of tissue (%ID/g).
In addition, the sampling time p.i. and %ID/g values were scaled proportionately to human magnitude (please see Equations (1) and (2) in Section 4.4) prior to dose estimation with OLINDA/EXM (Vanderbilt University, Nashville, TN, USA, version 1.0).
For human dosimetry estimation from animal biodistribution and PET/MR imaging, animal organ masses and time scale was extrapolated to human magnitudes. At first, the organ-specific animal %ID data were extrapolated to the human scale with the equation (1) %ID/organhuman=%ID/gmouse · morganhuman · mmouse/mhuman with the fraction of the injected activity in the corresponding human organ = %ID/organhuman , the fraction of injected activity per gram animal organ tissue = %ID/gmouse and morganhuman the mass of the corresponding human organ. At second, a time scale extrapolation is needed due to differences in the metabolic rate using the equation (2) thuman=tmouse{mhuman/mmouse}^0.25 including the human time scale = thuman , the animal time scale = tmouse and the ratio of animal and human body weights = mmouse/mhuman .
The human dosimetry estimation was performed with the data extrapolated as well as the genuine human data using OLINDA/EXM software. The time-activity curves were estimated by exponential fitting and calculating the time integral, which equals the number of disintegrations (NODs) per organ during the observation period normalized to 1 Becquerel administered activity dose. […] Therefore, activity data of the urinary bladder was derived from the image for each time point. In contrast, for humans the activity concentration data of the urinary bladder was obtained in a more direct approach. At first, the activity and volume of urine was determined in the last frame of the PET scan before each micturition. Afterwards, the voided urine was collected, weighed, and the activity of three aliquots (assuming 1 mL = 1 g) determined with a gamma counter, and the activity of the whole sample estimated. The difference between imaged and sampled urine activity is equal to the residue of radioactive urine in the urinary bladder. To calculate the NOD in the human urinary bladder, the time-activity curve is integrated using a trapezoidal equation (3) %ID˜UB=1/2∑i=1n−1(%IDi+%IDi+1)(ti+1−ti) with the fraction of injected activity %IDi at the time ti and the cumulated activity of the urinary bladder i.e., the NOD %ID˜UB .
Furthermore, the NODs of the gastric system were calculated following the ICRP GI model (ICRP 30) as implemented in OLINDA 1.0. The NODs obtained either from the EXM module or the trapezoidal equation were transferred to OLINDA. The OD for the chosen hermaphroditic adult male phantom is estimated following the MIRD scheme. The S values are pre-calculated and implemented for the respective phantom in OLINDA. Subsequently, the ED contribution from each organ is calculated by multiplying the ODs with the respective tissue weighting factors as published by the International Commission on Radiological Protection (ICRP 103 [27]) for each organ. […]

## FCC[C@@H]1OC2(CCN(Cc3ccccc3)CC2)c2ccccc21 [(S)-(−)-[^18F]fluspidine]
  OD Adrenals: 36.0 μSv/MBq
  OD Brain: 12.4 μSv/MBq
  OD Breasts: 11.2 μSv/MBq
  OD Gallbladder Wall: 15.5 μSv/MBq
  OD Heart Wall: 17.9 μSv/MBq
  OD Kidneys: 35.6 μSv/MBq
  OD LLI Wall: 19.0 μSv/MBq
  OD Liver: 12.5 μSv/MBq
  OD Lungs: 30.5 μSv/MBq
  OD Muscle: 7.2 μSv/MBq
  OD Osteogenic Cells: 19.6 μSv/MBq
  OD Ovaries: 17.0 μSv/MBq
  OD Pancreas: 26.2 μSv/MBq
  OD Red Marrow: 13.6 μSv/MBq
  OD Skin: 9.1 μSv/MBq
  OD Small Intestine: 31.9 μSv/MBq
  OD Spleen: 17.6 μSv/MBq
  OD Stomach Wall: 14.8 μSv/MBq
  OD Testes: 11.2 μSv/MBq
  OD Thymus: 12.0 μSv/MBq
  OD Thyroid: 11.7 μSv/MBq
  OD Total Body: 12.5 μSv/MBq
  OD ULI Wall: 33.3 μSv/MBq
  OD Urinary Bladder Wall: 13.9 μSv/MBq
  OD Uterus: 15.9 μSv/MBq
  ED Contr. Adrenals: 0.3 μSv/MBq
  ED Contr. Brain: 0.1 μSv/MBq
  ED Contr. Breasts: 1.3 μSv/MBq
  ED Contr. Gallbladder Wall: 0.1 μSv/MBq
  ED Contr. Heart Wall: 0.2 μSv/MBq
  ED Contr. Kidneys: 0.3 μSv/MBq
  ED Contr. LLI Wall: 1.1 μSv/MBq
  ED Contr. Liver: 0.5 μSv/MBq
  ED Contr. Lungs: 3.7 μSv/MBq
  ED Contr. Muscle: 0.1 μSv/MBq
  ED Contr. Osteogenic Cells: 0.2 μSv/MBq
  ED Contr. Ovaries: 1.4 μSv/MBq
  ED Contr. Pancreas: 0.2 μSv/MBq
  ED Contr. Red Marrow: 1.6 μSv/MBq
  ED Contr. Skin: 0.1 μSv/MBq
  ED Contr. Small Intestine: 0.3 μSv/MBq
  ED Contr. Spleen: 0.2 μSv/MBq
  ED Contr. Stomach Wall: 1.8 μSv/MBq
  ED Contr. Thymus: 0.1 μSv/MBq
  ED Contr. Thyroid: 0.5 μSv/MBq
  ED Contr. ULI Wall: 2.0 μSv/MBq
  ED Contr. Urinary Bladder Wall: 0.6 μSv/MBq
  ED Contr. Uterus: 0.1 μSv/MBq
  ED ICRP 60: 17.3 μSv/MBq
  ED: 16.7 μSv/MBq
Listed as (S)-(−)-[^18F]Fluspidine
  ED: 16.7 μSv/MBq

## [18F]CC[C@H]1OC2(CCN(Cc3ccccc3)CC2)c2ccccc21 [(R)-(+)-[^18F]fluspidine]
  OD Adrenals: 18.6 μSv/MBq
  OD Brain: 12.6 μSv/MBq
  OD Breasts: 11.3 μSv/MBq
  OD Gallbladder Wall: 14.0 μSv/MBq
  OD Heart Wall: 22.3 μSv/MBq
  OD Kidneys: 27.6 μSv/MBq
  OD LLI Wall: 16.4 μSv/MBq
  OD Liver: 10.3 μSv/MBq
  OD Lungs: 45.5 μSv/MBq
  OD Muscle: 7.1 μSv/MBq
  OD Osteogenic Cells: 19.1 μSv/MBq
  OD Ovaries: 24.9 μSv/MBq
  OD Pancreas: 21.7 μSv/MBq
  OD Red Marrow: 13.5 μSv/MBq
  OD Skin: 8.7 μSv/MBq
  OD Small Intestine: 25.1 μSv/MBq
  OD Spleen: 17.2 μSv/MBq
  OD Stomach Wall: 14.3 μSv/MBq
  OD Testes: 10.8 μSv/MBq
  OD Thymus: 19.3 μSv/MBq
  OD Thyroid: 11.5 μSv/MBq
  OD Total Body: 12.2 μSv/MBq
  OD ULI Wall: 25.6 μSv/MBq
  OD Urinary Bladder Wall: 20.2 μSv/MBq
  OD Uterus: 14.9 μSv/MBq
  ED Contr. Adrenals: 0.2 μSv/MBq
  ED Contr. Brain: 0.1 μSv/MBq
  ED Contr. Breasts: 1.4 μSv/MBq
  ED Contr. Gallbladder Wall: 0.1 μSv/MBq
  ED Contr. Heart Wall: 0.2 μSv/MBq
  ED Contr. Kidneys: 0.2 μSv/MBq
  ED Contr. LLI Wall: 1.0 μSv/MBq
  ED Contr. Liver: 0.4 μSv/MBq
  ED Contr. Lungs: 5.5 μSv/MBq
  ED Contr. Muscle: 0.1 μSv/MBq
  ED Contr. Osteogenic Cells: 0.2 μSv/MBq
  ED Contr. Ovaries: 2.0 μSv/MBq
  ED Contr. Pancreas: 0.2 μSv/MBq
  ED Contr. Red Marrow: 1.6 μSv/MBq
  ED Contr. Skin: 0.1 μSv/MBq
  ED Contr. Small Intestine: 0.2 μSv/MBq
  ED Contr. Spleen: 0.1 μSv/MBq
  ED Contr. Stomach Wall: 1.7 μSv/MBq
  ED Contr. Thymus: 0.2 μSv/MBq
  ED Contr. Thyroid: 0.5 μSv/MBq
  ED Contr. ULI Wall: 1.5 μSv/MBq
  ED Contr. Urinary Bladder Wall: 0.8 μSv/MBq
  ED Contr. Uterus: 0.1 μSv/MBq
  ED ICRP 60: 20.1 μSv/MBq
  ED: 18.4 μSv/MBq
